Experiments:
[1] = biological target: T1, Protein kinase C epsilon type (Homo sapiens, UniProt Q02156); assay: Displacement of [3H]PDBu from PKCepsilon C1B domain
T1 sequence (Q02156 whole entry): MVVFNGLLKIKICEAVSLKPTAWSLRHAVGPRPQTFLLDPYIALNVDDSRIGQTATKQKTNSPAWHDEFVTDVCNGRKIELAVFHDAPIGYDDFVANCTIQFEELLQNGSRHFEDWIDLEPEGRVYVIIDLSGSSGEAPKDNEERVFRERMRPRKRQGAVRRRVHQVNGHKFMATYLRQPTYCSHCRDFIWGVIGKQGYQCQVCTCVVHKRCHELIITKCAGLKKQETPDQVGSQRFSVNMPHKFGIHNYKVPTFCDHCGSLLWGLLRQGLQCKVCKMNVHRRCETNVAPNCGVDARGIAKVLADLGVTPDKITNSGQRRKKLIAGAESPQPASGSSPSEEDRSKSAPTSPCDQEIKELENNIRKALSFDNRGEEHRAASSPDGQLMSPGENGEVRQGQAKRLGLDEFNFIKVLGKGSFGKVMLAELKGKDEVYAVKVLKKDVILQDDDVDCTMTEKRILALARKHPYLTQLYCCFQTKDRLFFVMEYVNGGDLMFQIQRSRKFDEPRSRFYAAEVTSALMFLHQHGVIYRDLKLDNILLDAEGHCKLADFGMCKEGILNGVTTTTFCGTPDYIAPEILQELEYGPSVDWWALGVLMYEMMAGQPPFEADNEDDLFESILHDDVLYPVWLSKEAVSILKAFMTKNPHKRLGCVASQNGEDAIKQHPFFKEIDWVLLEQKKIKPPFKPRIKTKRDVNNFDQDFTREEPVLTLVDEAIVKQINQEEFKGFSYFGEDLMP

[2] = biological target: Protein kinase C delta type (Homo sapiens, UniProt Q05655); assay: Displacement of [3H]PDBu from PKCdelta C1B domain
Protein kinase C delta type, sequence (Q05655 whole entry, the tested form may be a part): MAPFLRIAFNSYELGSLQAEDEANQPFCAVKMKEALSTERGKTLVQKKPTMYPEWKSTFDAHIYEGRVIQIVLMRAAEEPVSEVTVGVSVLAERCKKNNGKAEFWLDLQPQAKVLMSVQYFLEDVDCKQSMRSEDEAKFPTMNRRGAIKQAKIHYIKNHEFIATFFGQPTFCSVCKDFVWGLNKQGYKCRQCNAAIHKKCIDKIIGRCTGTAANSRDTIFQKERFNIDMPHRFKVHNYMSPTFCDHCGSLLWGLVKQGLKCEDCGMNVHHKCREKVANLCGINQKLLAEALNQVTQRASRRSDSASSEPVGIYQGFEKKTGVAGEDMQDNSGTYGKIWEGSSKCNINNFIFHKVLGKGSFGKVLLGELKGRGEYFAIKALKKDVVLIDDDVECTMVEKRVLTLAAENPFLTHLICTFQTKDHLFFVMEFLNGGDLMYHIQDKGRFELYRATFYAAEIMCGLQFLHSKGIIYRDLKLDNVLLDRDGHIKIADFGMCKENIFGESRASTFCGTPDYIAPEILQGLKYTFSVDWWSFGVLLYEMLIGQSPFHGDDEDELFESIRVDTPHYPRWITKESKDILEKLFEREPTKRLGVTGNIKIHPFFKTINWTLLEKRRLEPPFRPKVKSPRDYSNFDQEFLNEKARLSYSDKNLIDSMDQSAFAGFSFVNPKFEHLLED

[3] = biological target: Protein kinase C eta type (Homo sapiens, UniProt P24723); assay: Displacement of [3H]PDBu from PKCeta C1B domain
Protein kinase C eta type, sequence (P24723 whole entry, the tested form may be a part): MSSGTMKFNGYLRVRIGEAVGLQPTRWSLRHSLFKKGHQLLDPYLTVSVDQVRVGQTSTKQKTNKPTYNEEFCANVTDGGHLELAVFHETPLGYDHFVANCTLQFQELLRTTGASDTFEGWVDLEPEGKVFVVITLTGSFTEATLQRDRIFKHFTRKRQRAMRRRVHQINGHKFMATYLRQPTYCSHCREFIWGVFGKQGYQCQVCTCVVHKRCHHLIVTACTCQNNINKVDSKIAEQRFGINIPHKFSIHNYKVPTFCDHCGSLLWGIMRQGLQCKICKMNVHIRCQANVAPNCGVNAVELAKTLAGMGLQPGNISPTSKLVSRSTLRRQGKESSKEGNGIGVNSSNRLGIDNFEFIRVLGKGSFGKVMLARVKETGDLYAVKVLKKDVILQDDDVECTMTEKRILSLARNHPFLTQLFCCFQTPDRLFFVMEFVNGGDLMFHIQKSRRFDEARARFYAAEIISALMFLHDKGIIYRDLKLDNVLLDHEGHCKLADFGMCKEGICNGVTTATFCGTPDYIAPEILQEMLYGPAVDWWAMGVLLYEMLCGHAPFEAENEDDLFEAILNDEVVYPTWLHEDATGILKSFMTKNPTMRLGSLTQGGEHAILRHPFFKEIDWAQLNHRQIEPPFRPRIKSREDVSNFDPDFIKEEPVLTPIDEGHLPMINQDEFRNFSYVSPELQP

[4] = biological target: Protein kinase C theta type (Homo sapiens, UniProt Q04759); assay: Displacement of [3H]PDBu from PKCtheta C1B domain
Protein kinase C theta type, sequence (Q04759 whole entry, the tested form may be a part): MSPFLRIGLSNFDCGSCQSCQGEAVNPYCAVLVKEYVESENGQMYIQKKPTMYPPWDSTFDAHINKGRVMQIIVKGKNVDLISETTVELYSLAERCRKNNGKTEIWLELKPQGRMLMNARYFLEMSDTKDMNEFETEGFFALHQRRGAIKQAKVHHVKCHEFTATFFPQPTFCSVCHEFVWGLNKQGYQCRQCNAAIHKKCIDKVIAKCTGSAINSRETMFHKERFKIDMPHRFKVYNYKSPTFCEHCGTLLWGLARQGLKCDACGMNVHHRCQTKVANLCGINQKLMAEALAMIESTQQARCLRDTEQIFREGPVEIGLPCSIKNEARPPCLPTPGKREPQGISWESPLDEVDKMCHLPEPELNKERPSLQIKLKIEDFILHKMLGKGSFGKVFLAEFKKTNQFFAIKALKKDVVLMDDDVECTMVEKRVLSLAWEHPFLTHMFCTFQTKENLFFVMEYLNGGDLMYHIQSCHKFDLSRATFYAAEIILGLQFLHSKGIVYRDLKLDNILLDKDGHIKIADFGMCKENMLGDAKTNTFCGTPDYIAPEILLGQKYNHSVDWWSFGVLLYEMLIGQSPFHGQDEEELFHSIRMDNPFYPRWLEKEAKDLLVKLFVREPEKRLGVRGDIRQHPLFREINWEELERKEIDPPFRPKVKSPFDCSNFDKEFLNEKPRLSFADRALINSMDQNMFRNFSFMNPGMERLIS

[5] = biological target: T2, Protein kinase C alpha type (Homo sapiens, UniProt P17252); assay: Displacement of [3H]PDBu from PKCalpha C1A domain
[6] = biological target: T3, Protein kinase C beta type (Homo sapiens, UniProt P05771); assay: Displacement of [3H]PDBu from PKCbeta C1B domain
T3 sequence (P05771 whole entry, the tested form may be a part): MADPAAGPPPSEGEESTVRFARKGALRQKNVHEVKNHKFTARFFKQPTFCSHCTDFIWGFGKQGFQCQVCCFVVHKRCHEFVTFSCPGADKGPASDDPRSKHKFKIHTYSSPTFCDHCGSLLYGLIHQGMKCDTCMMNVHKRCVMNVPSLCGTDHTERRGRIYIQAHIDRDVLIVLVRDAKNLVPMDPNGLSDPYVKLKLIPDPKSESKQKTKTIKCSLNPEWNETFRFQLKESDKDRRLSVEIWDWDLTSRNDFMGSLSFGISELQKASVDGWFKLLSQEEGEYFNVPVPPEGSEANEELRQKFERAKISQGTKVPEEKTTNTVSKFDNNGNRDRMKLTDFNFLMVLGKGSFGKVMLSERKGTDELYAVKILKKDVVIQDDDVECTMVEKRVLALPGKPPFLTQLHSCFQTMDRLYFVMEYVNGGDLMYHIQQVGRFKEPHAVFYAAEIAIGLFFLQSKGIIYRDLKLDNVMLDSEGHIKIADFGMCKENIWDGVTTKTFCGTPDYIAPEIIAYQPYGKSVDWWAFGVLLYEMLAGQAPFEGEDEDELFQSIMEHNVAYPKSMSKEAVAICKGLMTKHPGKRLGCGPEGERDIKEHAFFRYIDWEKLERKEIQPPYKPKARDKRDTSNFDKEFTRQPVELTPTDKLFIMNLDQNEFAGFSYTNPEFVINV

[7] = biological target: T3, Protein kinase C beta type; assay: Displacement of [3H]PDBu from PKCbeta C1A domain
[8] = biological target: T2, Protein kinase C alpha type; assay: Displacement of [3H]PDBu from PKCalpha C1B domain
[9] = biological target: T4, Protein kinase C gamma type (Homo sapiens, UniProt P05129); assay: Displacement of [3H]PDBu from PKCgamma C1A domain
[10] = biological target: T4, Protein kinase C gamma type; assay: Displacement of [3H]PDBu from PKCgamma C1B domain

SMILES	Ki [1] [nM]	Ki [2] [nM]	Ki [3] [nM]	Ki [4] [nM]	Ki [5] [nM]	Ki [6] [nM]	Ki [7] [nM]	Ki [8] [nM]	Ki [9] [nM]	Ki [10] [nM]
CC(C)[C@H]1C(=O)N[C@H](CO)Cc2cn3nc(C(F)(F)F)c4ccc(c2c43)N1C	80.1	52.1	29.7	51.1	112	9380	127	721	234	1100
CC(C)[C@H]1C(=O)N[C@H](CO)Cc2cn3ncc4ccc(c2c43)N1C	22.5	17.7	9.9	18.6	85.5	5960	88	357	61.3	225
Cc1nn2cc3c4c(ccc1c42)N(C)[C@@H](C(C)C)C(=O)N[C@H](CO)C3	407	128	223	149	1090	> 10000	1100	2620	1510	2580
CC(C)[C@H]1C(=O)N[C@H](CO)Cc2c[nH]c3cccc(c23)N1C [INDOLACTUM]	–	–	–	–	–	4000	–	140	–	–

— ChEMBL document CHEMBL1143200, “Design and physicochemical properties of new fluorescent ligands of protein kinase C isozymes focused on CH/pi interaction” (Bioorg Med Chem, 2008)
